# Measurements from patent US20260250318A1, “COMPOSITIONS AND METHODS FOR CROSSING THE BLOOD BRAIN BARRIER” (VOYAGER THERAPEUTICS, INC., priority 2022, published 2026).
# What was measured:
# [1] = test system: brains, heart, liver, muscle, and DRG of the NHPs; assay: Maturation of TTM-001 and TTM-002 capsids, NGS enrichment in NHP tissues; format: in vivo; conditions: relative to AAV9 control
# In short: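 Variants carry mutations within and flanking the loop IV peptide insert: positions 450–466 were triplet-randomized, while positions 449–466 received low-frequency point mutations. The combined pool went into two NHPs, and each peptide was scored by NGS enrichment ratio against AAV9.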
# brain = assay: Matured TTM-001 and TTM-002 variants, NGS enrichment in mouse brain; format: in vivo, mice; conditions: relative to AAV9 control
# [2] = NGS fold-enrichment of matured AAV capsid variants, NHP brain, RNA
# [3] = NGS fold-enrichment, DRG of NHPs
# [4] = NGS fold-enrichment, RNA, brain of NHPs
# [5] = NGS fold-enrichment, heart of NHPs
# [6] = NGS fold-enrichment, liver DNA of NHPs
# [7] = NGS fold-enrichment, liver RNA of NHPs
# [8] = NGS fold-enrichment, muscle of NHPs
# [9] = NGS fold-enrichment, brain of mice
# [10] = NGS fold-enrichment of RNA, NHP brain
# [11] = NGS fold-enrichment, NHP liver DNA
# [12] = NGS fold-enrichment, NHP liver RNA
# [13] = NGS fold-enrichment, NHP muscle
# [14] = NGS fold-enrichment, mouse brain
sequence,measurement,setting,value
KTDVNSGSPHSKAQNQQT,"Fold Enrichment relative to AAV9, Brain (NHP)",[1]; [2],57.593 fold
same,"Fold Enrichment relative to AAV9, DRG (NHP)",[1]; NHP DRG,0.000 fold
same,"Fold Enrichment relative to AAV9, Heart (NHP)",[1]; NHP heart,0.000 fold
same,"Fold Enrichment relative to AAV9, Liver DNA (NHP)","[1]; NHP liver, DNA",0.331 fold
same,"Fold Enrichment relative to AAV9, Liver RNA (NHP)","[1]; NHP liver, RNA",0.000 fold
same,"Fold Enrichment relative to AAV9, Muscle (NHP)",[1]; NHP muscle,0.000 fold
same,"Fold Enrichment relative to AAV9, Brain (Mouse)",brain; mouse brain,66.127 fold
KTEARSGSPHSKAQNQQT,"Fold Enrichment relative to AAV9, DRG (NHP)",[1]; [3],0.000 fold
same,"Fold Enrichment relative to AAV9, Brain (NHP)",[1]; [4],73.349 fold
same,"Fold Enrichment relative to AAV9, Heart (NHP)",[1]; [5],0.000 fold
same,"Fold Enrichment relative to AAV9, Liver DNA (NHP)",[1]; [6],0.118 fold
same,"Fold Enrichment relative to AAV9, Liver RNA (NHP)",[1]; [7],0.695 fold
same,"Fold Enrichment relative to AAV9, Muscle (NHP)",[1]; [8],0.000 fold
same,"Fold Enrichment relative to AAV9, Brain (Mouse)",brain; [9],62.903 fold
KTEDKSGSPHSKAQNQQT,"Fold Enrichment relative to AAV9, DRG (NHP)",[1]; [3],0.000 fold
same,"Fold Enrichment relative to AAV9, Brain (NHP)",[1]; [4],68.813 fold
same,"Fold Enrichment relative to AAV9, Heart (NHP)",[1]; [5],0.000 fold
same,"Fold Enrichment relative to AAV9, Liver DNA (NHP)",[1]; [6],0.000 fold
same,"Fold Enrichment relative to AAV9, Liver RNA (NHP)",[1]; [7],0.000 fold
same,"Fold Enrichment relative to AAV9, Muscle (NHP)",[1]; [8],0.000 fold
same,"Fold Enrichment relative to AAV9, Brain (Mouse)",brain; [9],70.071 fold
KTEDLSGSPHSKAQNQQT,"Fold Enrichment relative to AAV9, Brain (NHP)",[1]; [2],54.156 fold
same,"Fold Enrichment relative to AAV9, DRG (NHP)",[1]; NHP DRG,0.000 fold
same,"Fold Enrichment relative to AAV9, Heart (NHP)",[1]; NHP heart,0.000 fold
same,"Fold Enrichment relative to AAV9, Liver DNA (NHP)","[1]; NHP liver, DNA",0.132 fold
same,"Fold Enrichment relative to AAV9, Liver RNA (NHP)","[1]; NHP liver, RNA",1.193 fold
same,"Fold Enrichment relative to AAV9, Muscle (NHP)",[1]; NHP muscle,0.000 fold
same,"Fold Enrichment relative to AAV9, Brain (Mouse)",brain; mouse brain,70.198 fold
KTEDRSGSPHSKAQNQQT,"Fold Enrichment relative to AAV9, DRG (NHP)",[1]; [3],0.000 fold
same,"Fold Enrichment relative to AAV9, Brain (NHP)",[1]; [4],61.756 fold
same,"Fold Enrichment relative to AAV9, Heart (NHP)",[1]; [5],0.000 fold
same,"Fold Enrichment relative to AAV9, Liver DNA (NHP)",[1]; [6],0.408 fold
same,"Fold Enrichment relative to AAV9, Liver RNA (NHP)",[1]; [7],1.004 fold
same,"Fold Enrichment relative to AAV9, Muscle (NHP)",[1]; [8],0.000 fold
same,"Fold Enrichment relative to AAV9, Brain (Mouse)",brain; [9],66.887 fold
KTEFGHDSPHKSGQNQQT,"Fold Enrichment relative to AAV9, Brain (NHP)",[1]; [10],77.245 fold
same,"Fold Enrichment relative to AAV9, DRG (NHP)","[1]; NGS fold-enrichment, NHP DRG",0.000 fold
same,"Fold Enrichment relative to AAV9, Heart (NHP)","[1]; NGS fold-enrichment, NHP heart",0.124 fold
same,"Fold Enrichment relative to AAV9, Liver DNA (NHP)",[1]; [11],0.063 fold
same,"Fold Enrichment relative to AAV9, Liver RNA (NHP)",[1]; [12],0.561 fold
same,"Fold Enrichment relative to AAV9, Muscle (NHP)",[1]; [13],0.000 fold
same,"Fold Enrichment relative to AAV9, Brain (Mouse)",brain; [14],16.337 fold
KTEFVSGSPHSKAQNQQT,"Fold Enrichment relative to AAV9, DRG (NHP)",[1]; [3],0.000 fold
same,"Fold Enrichment relative to AAV9, Brain (NHP)",[1]; [4],59.306 fold
same,"Fold Enrichment relative to AAV9, Heart (NHP)",[1]; [5],0.000 fold
same,"Fold Enrichment relative to AAV9, Liver DNA (NHP)",[1]; [6],0.276 fold
same,"Fold Enrichment relative to AAV9, Liver RNA (NHP)",[1]; [7],0.196 fold
same,"Fold Enrichment relative to AAV9, Muscle (NHP)",[1]; [8],0.000 fold
same,"Fold Enrichment relative to AAV9, Brain (Mouse)",brain; [9],69.788 fold
KTEGISGSPHSKAQNQQT,"Fold Enrichment relative to AAV9, Brain (NHP)",[1]; [2],53.270 fold
same,"Fold Enrichment relative to AAV9, DRG (NHP)",[1]; NHP DRG,0.000 fold
same,"Fold Enrichment relative to AAV9, Heart (NHP)",[1]; NHP heart,0.000 fold
same,"Fold Enrichment relative to AAV9, Liver DNA (NHP)","[1]; NHP liver, DNA",0.010 fold
same,"Fold Enrichment relative to AAV9, Liver RNA (NHP)","[1]; NHP liver, RNA",0.000 fold
same,"Fold Enrichment relative to AAV9, Muscle (NHP)",[1]; NHP muscle,0.000 fold
same,"Fold Enrichment relative to AAV9, Brain (Mouse)",brain; mouse brain,78.303 fold
KTEGKHDSPHKSGQNQQT,"Fold Enrichment relative to AAV9, Brain (NHP)",[1]; [10],98.384 fold
same,"Fold Enrichment relative to AAV9, DRG (NHP)","[1]; NGS fold-enrichment, NHP DRG",0.000 fold
same,"Fold Enrichment relative to AAV9, Heart (NHP)","[1]; NGS fold-enrichment, NHP heart",0.056 fold
same,"Fold Enrichment relative to AAV9, Liver DNA (NHP)",[1]; [11],0.000 fold
same,"Fold Enrichment relative to AAV9, Liver RNA (NHP)",[1]; [12],0.000 fold
same,"Fold Enrichment relative to AAV9, Muscle (NHP)",[1]; [13],0.000 fold
same,"Fold Enrichment relative to AAV9, Brain (Mouse)",brain; [14],10.345 fold
